Assay results: patent US10800772B2 (Gilead Sciences, Inc., priority 2016, dated 2020)
Where two headings read alike, the source gives them in different places.

Assays:
[1] = tested on: HIV-IIIb (wildtype); assay: Antiviral assay in MT4 cells, HIV-IIIb wildtype; type: cell-based, HIV-1; conditions: read-out: WT EC50
Outline: (§1)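 HIV-IIIb at 0.004 m.o.i., 3 h pre-infection of MT4 cells at 37 °C; 2000 cells/well in RPMI 1640 + 10% FBS with 3-fold compound dilutions, 10 conc., quadruplicate. 5-day incubation, CellTiter-Glo readout. EC50 = 50% luminescence decrease.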

[2] = tested on: HIV-IIIb IN T174I BT; assay: Antiviral assay in MT4 cells, HIV-IIIb IN T174I BT virus (from viral breakthrough); type: cell-based, HIV-1; conditions: Human immunodeficiency virus 1, IIIB, MT4, 120 h, read-out: T174I BT EC50, MT4 cells, HIV-IIIb IN T174I BT (viral breakthrough), 5 days, CellTiter-Glo
Outline: as §1

[3] = tested on: HIV-IIIb IN T174I DE; assay: Antiviral assay in MT4 cells, HIV-IIIb IN T174I DE virus (from dose escalation passaging); type: cell-based, HIV-1; conditions: Human immunodeficiency virus 1, IIIB, MT4, 120 h, read-out: T174I DE EC50, MT4 cells, HIV-IIIb IN T174I DE (dose escalation), 5 days, CellTiter-Glo
Outline: as §1

[4] = Hum MS stability (human microsomal stability half-life); conditions: human microsomes
[5] = Human immunodeficiency virus 1, IIIB, MT4, 120 h

Structure (SMILES)	EC50 [1, 5] [nM]	EC50 [2] [nM]	EC50 [3] [nM]	half-life [4] [h]	EC50 ([1]; Human immunodeficiency virus 1, 120 h, MT4 cells, HIV-IIIb wildtype, 5 days, CellTiter-Glo) [nM]
Cc1cc2nc(-c3ccc4c(n3)c(C3CCN([C@H]5CCN(C)C5)CC3)nn4C)sc2c(-c2ccc(Cl)cc2)c1[C@H](OC(C)(C)C)C(=O)O [Compound 172, (S)-2-(tert-butoxy)-2-(7-(4-chloro-phenyl)-5-methyl-2-(1-methyl-3-(1-((S)-1-methyl-pyrrolidin-3-yl)piperidin-4-yl)-1H-pyrazolo[4,3-b]pyridin-5-yl)benzo[d]thiazol-6-yl)acetic acid]	5	54	118	0.933	
Cc1cc2nc(-c3ccc4c(c3)c(C3CCN(C5CS(=O)(=O)C5)CC3)nn4C)sc2c(-c2ccc(Cl)cc2)c1[C@H](OC(C)(C)C)C(=O)O [Compound 10, (S)-2-(tert-butoxy)-2-(7-(4-chlorophenyl)-2-(3-(1-(1,1-dioxidothietan-3-yl)piperidin-4-yl)-1-methyl-1H-indazol-5-yl)-5-methylbenzo[d]thiazol-6-yl)acetic Acid]	10	275	303	3.58	
COCCOC1CN(c2nn(C)c3ccc(-c4nc5cc(C)c([C@H](OC(C)(C)C)C(=O)O)c(-c6ccc(Cl)cc6)c5s4)cc23)C1 [Compound 134, (S)-2-(tert-butoxy)-2-(7-(4-chloro-phenyl)-2-(3-(3-(2-methoxyethoxy)azetidin-1-yl)-1-methyl-1H-indazol-5-yl)-5-methylbenzo[d]thiazol-6-yl) acetic acid]	13	1160	2240	1.48	
Cc1cc2nc(-c3ccc4c(n3)c(N3CCN([C@H]5C[C@@H](O)C5)CC3)nn4C)sc2c(-c2ccc(Cl)cc2)c1[C@H](OC(C)(C)C)C(=O)O [Compound 197, (S)-2-(tert-butoxy)-2-(7-(4-chloro-phenyl)-2-(3-(4-((1s,3s)-3-hydroxy-cyclobutyl)piperazin-1-yl)-1-methyl-1H-pyrazolo[4,3-b]pyridin-5-yl)-5-methylbenzo[d]thiazol-6-yl) acetic acid]	18	936	2680	2.8	
Cc1cc2nc(-c3ccc4c(n3)c(C3CCN([C@H]5C[C@@H](O)C5)CC3)nn4C)sc2c(-c2ccc(Cl)cc2)c1[C@H](OC(C)(C)C)C(=O)O [Compound 188, (S)-2-(tert-butoxy)-2-(7-(4-chloro-phenyl)-2-(3-(1-((1s,3s)-3-hydroxy-cyclobutyl)piperidin-4-yl)-1-methyl-1H-pyrazolo[4,3-b]pyridin-5-yl)-5-methylbenzo[d]thiazol-6-yl) acetic acid]	11	196	391	2.53	
[2H]C([2H])([2H])C(O[C@H](C(=O)O)c1c(C)cc2nc(-c3ccc4c(c3)c(C3CCN(C5COC5)CC3)nn4C)sc2c1-c1ccc(Cl)cc1)(C([2H])([2H])[2H])C([2H])([2H])[2H] [Compound 21, (S)-2-(7-(4-chlorophenyl)-5-methyl-2-(1-methyl-3-(1-(oxetan-3-yl)piperidin-4-yl)-1H-indazol-5-yl)benzo[d]thiazol-6-yl)-2-((2-(methyl-d3)propan-2-yl-1,1,1,3,3,3-d6)oxy)acetic Acid]		124	239	3.3	4
COCCN1CCC(c2nn(C)c3ccc(-c4nc5cc(C)c([C@H](OC(C)(C)C)C(=O)O)c(-c6ccc(Cl)cc6)c5s4)cc23)C1 (single isomer, unassigned) [Compound 69]	5	972	1150	5.72	
Cc1cc2nc(-c3ccc4c(c3)c(C3CCN(C(=O)[C@H]5CCCO5)CC3)nn4C)sc2c(-c2ccc(Cl)cc2)c1[C@H](OC(C)(C)C)C(=O)O [Compound 9, (S)-2-(tert-butoxy)-2-(7-(4-chlorophenyl)-5-methyl-2-(1-methyl-3-(1-((R)-tetrahydrofuran-2-carbonyl)piperidin-4-yl)-1H-indazol-5-yl)benzo[d]thiazol-6-yl)acetic Acid]	9	237	511	4.17	
COCCOC(=O)N1CCC(c2nn(C)c3ccc(-c4nc5cc(C)c([C@H](OC(C)(C)C)C(=O)O)c(-c6ccc(Cl)cc6)c5s4)cc23)C1 (stereo partly drawn) [Compound 73, (2S)-2-(tert-butoxy)-2-(7-(4-chlorophenyl)-2-(3-(1-((2-methoxyethoxy)carbonyl)pyrrolidin-3-yl)-1-methyl-1H-indazol-5-yl)-5-methylbenzo[d]thiazol-6-yl)acetic acid]	6	720	823	3.05	
Cc1cc2nc(-c3ccc4c(c3)c(C3CCN([C@H]5CCN(C)C5)CC3)nn4C)sc2c(-c2ccc(Cl)cc2)c1[C@H](OC(C)(C)C)C(=O)O [Compound 163, (S)-2-(tert-butoxy)-2-(7-(4-chloro-phenyl)-5-methyl-2-(1-methyl-3-(1-((S)-1-methyl-pyrrolidin-3-yl)piperidin-4-yl)-1H-indazol-5-yl)benzo[d]thiazol-6-yl)acetic acid]	20	204	324	2.12	
CCN1CCN(c2nn(C)c3ccc(-c4nc5cc(C)c([C@H](OC(C)(C)C)C(=O)O)c(-c6ccc(Cl)cc6)c5s4)cc23)CC1 [Compound 133, (S)-2-(tert-butoxy)-2-(7-(4-chloro-phenyl)-2-(3-(4-ethylpiperazin-1-yl)-1-methyl-1H-indazol-5-yl)-5-methylbenzo[d]thiazol-6-yl) acetic acid]	3	434	439	5.82	
Cc1cc2nc(-c3ccc4c(c3)c(N3CCN(C)C3=O)nn4C)sc2c(-c2ccc(Cl)cc2)c1[C@H](OC(C)(C)C)C(=O)O [Compound 80, (S)-2-(tert-butoxy)-2-(7-(4-chlorophenyl)-5-methyl-2-(1-methyl-3-(3-methyl-2-oxoimidazolidin-1-yl)-1H-indazol-5-yl)benzo[d]thiazol-6-yl)acetic Acid]	13	1510	2280	5.42	
Cc1cc2nc(-c3ccc4c(c3)c(C3CCN(S(C)(=O)=O)CC3)nn4C)sc2c(-c2ccc(Cl)cc2)c1[C@H](OC(C)(C)C)C(=O)O [Compound 25, (S)-2-(tert-butoxy)-2-(7-(4-chlorophenyl)-5-methyl-2-(1-methyl-3-(1-(methylsulfonyl)piperidin-4-yl)-1H-indazol-5-yl)benzo[d]thiazol-6-yl)acetic acid]	10	404	806	4.25	
Cc1cc2nc(-c3ccc4c(n3)c(C3CCN(C5CN(C)C5)CC3)nn4C)sc2c(-c2ccc(Cl)cc2)c1[C@H](OC(C)(C)C)C(=O)O [Compound 184, (S)-2-(tert-butoxy)-2-(7-(4-chloro-phenyl)-5-methyl-2-(1-methyl-3-(1-(1-methylazetidin-3-yl)piperidin-4-yl)-1H-pyrazolo [4,3-b]pyridin-5-yl)benzo[d]thiazol-6-yl) acetic acid]	4	103	218	0.767	
COCC(COC)N1CC(c2nn(C)c3ccc(-c4nc5cc(C)c([C@H](OC(C)(C)C)C(=O)O)c(-c6ccc(Cl)cc6)c5s4)cc23)C1 [Compound 61, (S)-2-(tert-butoxy)-2-(7-(4-chlorophenyl)-2-(3-(1-(1,3-dimethoxypropan-2-yl)azetidin-3-yl)-1-methyl-1H-indazol-5-yl)-5-methylbenzo[d]thiazol-6-yl)acetic acid]	7	1610	2700	3.62	
COCCN1CCN(c2nn(C)c3ccc(-c4nc5cc(C)c([C@H](OC(C)(C)C)C(=O)O)c(-c6ccc(Cl)cc6)c5s4)cc23)CC1 [Compound 98, (S)-2-(tert-butoxy)-2-(7-(4-chlorophenyl)-2-(3-(4-(2-methoxyethyl)piperazin-1-yl)-1-methyl-1H-indazol-5-yl)-5-methylbenzo[d]thiazol-6-yl)acetic acid]	4	290	516	3.17	
COCCN1CCC(c2nn(C)c3ccc(-c4nc5cc(C)c([C@H](OC(C)(C)C)C(=O)O)c(-c6ccc(Cl)cc6)c5s4)cc23)CC1 [Compound 125, (S)-2-(tert-butoxy)-2-(7-(4-chloro-phenyl)-2-(3-(1-(2-methoxyethyl)piperidin-4-yl)-1-methyl-1H-indazol-5-yl)-5-methylbenzo[d]thiazol-6-yl) acetic acid]	8	400	715	4.38	
Cc1cc2nc(-c3ccc4c(n3)c(N3CCN(C5COC5)CC3)nn4C)sc2c(-c2ccc(Cl)cc2)c1[C@H](OC(C)(C)C)C(=O)O [Compound 15, (S)-2-(tert-butoxy)-2-(7-(4-chlorophenyl)-5-methyl-2-(1-methyl-3-(4-(oxetan-3-yl)piperazin-1-yl)-1H-pyrazolo[4,3-b]pyridin-5-yl)benzo[d]thiazol-6-yl)acetic Acid]	4	657	3070	2.83	
